Legend:
[1] = target: T1, aldose reductase, originating from the lens of cattle (Bos taurus, UniProt P16116); assay: Enzyme reaction inhibiting activity (aldose reductase, NADPH / D,L-glyceraldehyde, absorbance at 340 nm); type: biochemical; conditions: for inhibition at 0.1 µg: concentration of 0.1 γ, pH 6.0, 37° C.
T1 construct: originating from the lens of cattle, was employed after being subjected to a partial purification; from tissue; host or cells: lens of cattle, partially purified
Method: The preparation of aldose reductase and the determination of its enzyme reaction inhibiting activity were carried out pursuant to the procedures disclosed by Haymann et al. in Journal of Biological Chemistry, 240, 877 (1965).
The sample solution to be examined for inhibiting activity was prepared by dissolving an amount of a compound of formula (I) according to the present invention in a small amount of methanol and increasing the volume of the resulting methanol solution by diluting it with distilled water up to tenfold volume. As the enzyme, i.e. aldose reductase, originating from the lens of cattle, was employed after being subjected to a partial purification.
To 2.4 ml of 5×10^-5 M NADPH solution dissolved in a 2/15 M phosphate buffer solution (pH 6.0), 0.4 ml of the enzyme solution and 0.1 ml of the sample solution to be examined were added and the mixture was charged in a quartz cell in a photoelectric photometer and was subjected to preincubation at 37° C. for 4 mins. Then, 0.1 ml of a 0.015 M D,L-glyceraldehyde solution was added thereto for initiating the enzyme reaction and the decrease in the photoabsorbance at 340 nm was measured at 37° C. for 4 mins. The aldose reductase inhibiting activity calculated by [formula] in which A represents the enzyme reaction rate with addition of the inhibitor and B denotes the enzyme reaction rate without addition of the inhibitor.

[2] = test system: sorbitol accumulation in lens; assay: Activity for suppressing accumulation of sorbitol, tissue culture of lens; type: cell-based, Wistar rats; conditions: for Inhibition of Sorbite Accumulat. in Lens: concentration of 2.5 γ, rat lens cultured 20 hours with added glucose
Method: (§1) Lenses and sciatic nerves excised from 7 weeks-old male Wistar rats were washed twice with an aseptic buffer solution consisting of 0.3% trisaminomethane, 0.8% NaCl, 0.038% KCl, 0.025% Na2 HPO4.12H2 O, 0.1% glucose and 1.85 ml/1 of concentrated HCl.
(§2) The lenses and the sciatic nerves were then treated by a 30 mins. preculture in a culture medium prepared by adding 2 ml of 7.5% conc. aseptic NaHCO3 solution and 5.5 ml of aseptic calf fetus serum to 100 ml of an aseptic culture medium of 0.98% TC Medium 199 (supplied from the firm NISSUI) containing 0.01% of dihydrostreptomycin and 0.01% of benzyl-penicillin. Thereafter, the intrinsic culture was effected in a culture medium prepared by adding each sample solution to be examined and 0.09% of glucose to the above-mentioned culture medium and permitting culturing to proceed for 20 hours. The culturing was effected at 37° C. in an atmosphere composed of 95% air and 5% CO2.
(§3) After culturing, the cultured samples of lens and sciatic nerve were removed from the culture medium to filter paper and the weight of each of them was measured after the adherent culture solution had been blown off. Then, each of the cultured samples was homogenized with the addition of 1 ml of a cold 8% HClO4 solution and the homogenized mixture was subjected to centrifugation at 10,000 G for 10 mins., whereby a supernatant was obtained. The resulting precipitate was then homogenized again with addition thereto of 0.5 ml of cold 8% HClO4 solution and the homogenized mixture was again subjected to centrifugation in a similar way as above to obtain a further supernatant. This was combined with the previously obtained supernatant and the resulting solution was neutralized with 2 N KOH aq. solution and was diluted with distilled water to a volume of 5 ml. The precipitate formed by neutralization was separated by centrifugation at 3,000 rpm for 10 mins. and the resulting supernatant was employed as the sample for determining the sorbitol content.
(§4) The determination of the sorbitol content in the lens and in the sciatic nerve was carried out in accordance with the technique of Bergmeyer in "Methods of Enzymatic Analysis" edited by H.U. Bergmeyer, pp 1323-1326, Academic Press, New York, 1974 and in accordance with the technique proposed by Malaon et al. in "Diabetes" 29, 861-864 (1980).
(§5) To 0.5 ml of the sample solution for determination of sorbitol content obtained as above, 0.9 ml of 0.1 M glycine-KOH buffer solution (pH 9.4) containing 1 mM of NAD^+ and 0.1 ml of a solution of sorbitol dehydrogenase of 20 units/ml were added and the resulting mixture was subjected to incubation at 37° C. for 1 hour.
(§6) The content of sorbitol in each tissue was estimated by assuming the increment of the photoabsorbance at 340 nm to be proportional to the amount of NADH produced by the reaction for the lens and by detecting the fluorescence with an excitation wavelength of 366 nm and a fluorescence wavelength of 425 nm for the sciatic nerve.
(§7) The activity for suppressing accumulation of sorbitol, i.e. the aldose reductase inhibiting activity, was calculated from the determined sorbitol content by the calculation formula [formula] in which A denotes the content of sorbitol per unit weight of the tissue after cultivation with addition of the inhibitor, B denotes the sorbitol content per unit weight of the tissue after cultivation without addition of the inhibitor and C represents the sorbitol content per unit weight of the tissue after cultivation in the medium without addition of glucose and inhibitor.

[3] = test system: sorbitol accumulation in sciatic nerve; assay: Activity for suppressing accumulation of sorbitol, tissue culture of sciatic nerve; type: cell-based, Wistar rats; conditions: concentration of 1.0 γ; rat sciatic nerve cultured 20 hours with added glucose
Method: as §1, §2, §3, §4, §5, §6, §7

STD-DDY mice = assay: Acute toxicity, oral; type: in vivo; conditions: orally 400 mg/20 ml/kg, dissolved with aqueous NaOH at pH 6.5-7.0, observed for 10 days
Method: Compounds of formula (I) according to the present invention, as given in the examples below or 2,2'-dimethoxy-5, 5'-bis(3-carboxypropyl) biphenyl, were suspended in distilled water and were dissolved completely by adding at least the equimolar amount of aqueous NaOH solution. […] No fatality was marked in any of the administered groups.

Molecule | aldose reductase inhibiting activity (in words) ([1]; tests according to 1) and 2), concentration not given) | activity for suppressing accumulation of sorbitol (in words) ([2]; tissue and concentration not stated) | inhibition at 0.1 µg [1] | Inhibition of Sorbite Accumulat. in Lens [2] | Inhibition of Sorbite Accum. in Sciatic N. [3] | fatality (acute toxicity) (STD-DDY mice)
2,2'-dimethoxy-5, 5'-bis(3-carboxypropyl) biphenyl diester | did not exhibit any aldose reductase inhibiting activity | no activity for suppressing accumulation of sorbitol | – | – | – | –
O=C(O)CCc1ccc(OCC2CCCCC2)c(-c2cc(CCC(=O)O)ccc2OCC2CCCCC2)c1 [2,2'-dicyclohexylmethoxy-5,5'-bis(2-carboxyethyl) biphenyl] | – | – | 44% | 51% | – | –
O=C(O)CCCc1ccc(OCC2CCCCC2)c(-c2cc(CCCC(=O)O)ccc2OCC2CCCCC2)c1 [2,2'-dicyclohexylmethoxy-5,5'-bis(3-carboxypropyl) biphenyl] | – | – | 45% | 57% | – | –
CCOc1ccc(CCC(=O)O)cc1-c1cc(CCC(=O)O)ccc1OCC [R=C2H5, n=2, 2,2'-diethoxy-5,5'-bis(2-carboxyethyl) biphenyl] | – | – | 43% | 56% | 69% | –
CCOc1ccc(CCCC(=O)O)cc1-c1cc(CCCC(=O)O)ccc1OCC [R=C2H5, n=3, 2,2'-diethoxy-5,5'-bis(3-carboxypropyl) biphenyl] | – | – | 77% | 76% | 80% | –
CCCOc1ccc(CCC(=O)O)cc1-c1cc(CCC(=O)O)ccc1OCCC [R=C3H7, n=2, 2,2'-dipropoxy-5,5'-bis(2-carboxyethyl) biphenyl] | – | – | 35% | 66% | 67% | –
CCCOc1ccc(CCCC(=O)O)cc1-c1cc(CCCC(=O)O)ccc1OCCC [R=C3H7, n=3, 2,2'-dipropoxy-5,5'-bis(3-carboxypropyl) biphenyl] | – | – | 57% | 68% | 67% | –
CCCCCOc1ccc(CCCC(=O)O)cc1-c1cc(CCCC(=O)O)ccc1OCCCCC [R=C5H11, n=3, 2,2'-dipentyloxy-5,5,'-bis(3-carboxypropyl) biphenyl] | – | – | 48% | – | – | –
COc1ccc(CCC(=O)O)cc1-c1cc(CCC(=O)O)ccc1OC [R=CH3, n=2, 2,2'-dimethoxy-5,5'-bis(2-carboxyethyl) biphenyl] | – | – | 44% | 76% | 85% | –
COc1ccc(CCCC(=O)O)cc1-c1cc(CCCC(=O)O)ccc1OC [R=CH3, n=3, 2,2'-dimethoxy-5,5'-bis (3-carboxypropyl) biphenyl] | – | – | 63% | 85% | 92% | No fatality
